Data published in the supplement of paper PMC10307832.

Experiments:
Test in all cases: relative viability (nuclei count vs DMSO), 5 days (fraction); higher = more cells survive
NCI-H1944 = system: NCI-H1944
Procedure, shortened: (§1)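 Relative viability divides the nuclei count in treated wells by that in vehicle wells. Lung cancer cell lines were seeded in 1536-well plates, dosed by pin tool the next day, and fixed and stained after 5 days in one step with final 0.05% Triton X-100, 1% formaldehyde and 1 ug/ml Hoechst. Dosing was a single drug or a fixed anchor-drug dose plus five library-drug doses (not always all listed) in √10 steps, and values are medians of duplicate plates imaged at 4×.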

NCI-H2170 = system: NCI-H2170
Procedure, shortened: as §1

NCI-H1793 = system: NCI-H1793
Procedure, shortened: as §1

LXF-289 = system: LXF-289
Procedure, shortened: as §1

NCI-H1666 = system: NCI-H1666
Procedure, shortened: as §1

HCC-366 = system: HCC-366
Procedure, shortened: as §1

A-427 = system: A-427
Procedure, shortened: as §1

LC-2-ad = system: LC-2-ad
Procedure, shortened: as §1

LU99A = system: LU99A
Procedure, shortened: as §1

NCI-H1915 = system: NCI-H1915
Procedure, shortened: as §1

NCI-H358 = system: NCI-H358
Procedure, shortened: as §1

EPLC-272H = system: EPLC-272H
Procedure, shortened: as §1

NCI-H460 = system: NCI-H460
Procedure, shortened: as §1

HCC-78 = system: HCC-78
Procedure, shortened: as §1

HOP-62 = system: HOP-62
Procedure, shortened: as §1

SW 900 = system: SW 900
Procedure, shortened: as §1

NCI-H1792 = system: NCI-H1792
Procedure, shortened: as §1

NCI-H2085 = system: NCI-H2085
Procedure, shortened: as §1

CCN(CC)CCCCNc1ncc2cc(-c3cc(OC)cc(OC)c3)c(NC(=O)NC(C)(C)C)nc2n1 + NC(=O)Nc1cc(-c2cccc(F)c2)sc1C(=O)N[C@H]1CCCNC1 [AZD7762] (partner 0.2 µM)
relative viability (NCI-H1944; first compound 0.01 µM): 0.474 | relative viability (NCI-H1944; first compound 0.03162 µM): 0.86 | relative viability (NCI-H1944; first compound 0.1 µM): 0.513 | relative viability (NCI-H1944; first compound 0.3162 µM): 0.505 | relative viability (NCI-H1944; first compound 1 µM): 0.494 | relative viability (NCI-H2170; first compound 0.01 µM): 0.865 | relative viability (NCI-H2170; first compound 0.03162 µM): 1.01 | relative viability (NCI-H2170; first compound 0.1 µM): 1 | relative viability (NCI-H2170; first compound 0.3162 µM): 0.953 | relative viability (NCI-H2170; first compound 1 µM): 0.869 | relative viability (NCI-H1793; first compound 0.01 µM): 0.541 | relative viability (NCI-H1793; first compound 0.03162 µM): 0.581 | relative viability (NCI-H1793; first compound 0.1 µM): 0.601 | relative viability (NCI-H1793; first compound 0.3162 µM): 0.326 | relative viability (NCI-H1793; first compound 1 µM): 0.319 | relative viability (LXF-289; first compound 0.01 µM): 1.07 | relative viability (LXF-289; first compound 0.03162 µM): 1.18 | relative viability (LXF-289; first compound 0.1 µM): 1.16 | relative viability (LXF-289; first compound 0.3162 µM): 0.946 | relative viability (LXF-289; first compound 1 µM): 0.956 | relative viability (NCI-H1666; first compound 0.01 µM): 0.836 | relative viability (NCI-H1666; first compound 0.03162 µM): 0.848 | relative viability (NCI-H1666; first compound 0.1 µM): 0.889 | relative viability (NCI-H1666; first compound 0.3162 µM): 1.12 | relative viability (NCI-H1666; first compound 1 µM): 0.727 | relative viability (HCC-366; first compound 0.01 µM): 0.256 | relative viability (HCC-366; first compound 0.03162 µM): 0.462 | relative viability (HCC-366; first compound 0.1 µM): 0.277 | relative viability (HCC-366; first compound 0.3162 µM): 0.289 | relative viability (HCC-366; first compound 1 µM): 0.247 | relative viability (A-427; first compound 0.01 µM): 0.722 | relative viability (A-427; first compound 0.03162 µM): 0.671 | relative viability (A-427; first compound 0.1 µM): 0.778 | relative viability (A-427; first compound 0.3162 µM): 0.549 | relative viability (A-427; first compound 1 µM): 0.421 | relative viability (LC-2-ad; first compound 0.01 µM): 0.878 | relative viability (LC-2-ad; first compound 0.03162 µM): 0.798 | relative viability (LC-2-ad; first compound 0.1 µM): 0.92 | relative viability (LC-2-ad; first compound 0.3162 µM): 0.932 | relative viability (LC-2-ad; first compound 1 µM): 0.815 | relative viability (LU99A; first compound 0.01 µM): 0.325 | relative viability (LU99A; first compound 0.03162 µM): 0.486 | relative viability (LU99A; first compound 0.1 µM): 0.323 | relative viability (LU99A; first compound 0.3162 µM): 0.35 | relative viability (LU99A; first compound 1 µM): 0.289 | relative viability (NCI-H1915; first compound 0.01 µM): 0.655 | relative viability (NCI-H1915; first compound 0.03162 µM): 0.753 | relative viability (NCI-H1915; first compound 0.1 µM): 0.708 | relative viability (NCI-H1915; first compound 0.3162 µM): 0.757 | relative viability (NCI-H1915; first compound 1 µM): 0.736 | relative viability (NCI-H358; first compound 0.01 µM): 0.444 | relative viability (NCI-H358; first compound 0.03162 µM): 0.52 | relative viability (NCI-H358; first compound 0.1 µM): 0.593 | relative viability (NCI-H358; first compound 0.3162 µM): 0.64 | relative viability (NCI-H358; first compound 1 µM): 0.395 | relative viability (EPLC-272H; first compound 0.01 µM): 0.199 | relative viability (EPLC-272H; first compound 0.1 µM): 0.36 | relative viability (EPLC-272H; first compound 0.3162 µM): 0.188 | relative viability (EPLC-272H; first compound 1 µM): 0.198 | relative viability (NCI-H460; first compound 0.01 µM): 0.607 | relative viability (NCI-H460; first compound 0.03162 µM): 0.739 | relative viability (NCI-H460; first compound 0.1 µM): 0.716 | relative viability (NCI-H460; first compound 0.3162 µM): 0.821 | relative viability (NCI-H460; first compound 1 µM): 0.4 | relative viability (HCC-78; first compound 0.01 µM): 0.394 | relative viability (HCC-78; first compound 0.03162 µM): 0.647 | relative viability (HCC-78; first compound 0.1 µM): 0.726 | relative viability (HCC-78; first compound 0.3162 µM): 0.745 | relative viability (HCC-78; first compound 1 µM): 0.549 | relative viability (HOP-62; first compound 0.01 µM): 0.343 | relative viability (HOP-62; first compound 0.03162 µM): 0.666 | relative viability (HOP-62; first compound 0.1 µM): 0.939 | relative viability (HOP-62; first compound 0.3162 µM): 0.684 | relative viability (HOP-62; first compound 1 µM): 0.431 | relative viability (SW 900; first compound 0.01 µM): 0.646 | relative viability (SW 900; first compound 0.03162 µM): 0.637 | relative viability (SW 900; first compound 0.1 µM): 0.626 | relative viability (SW 900; first compound 0.3162 µM): 0.538 | relative viability (SW 900; first compound 1 µM): 0.388 | relative viability (NCI-H1792; first compound 0.01 µM): 0.817 | relative viability (NCI-H1792; first compound 0.03162 µM): 0.408 | relative viability (NCI-H1792; first compound 0.1 µM): 0.749 | relative viability (NCI-H1792; first compound 0.3162 µM): 0.673 | relative viability (NCI-H1792; first compound 1 µM): 0.586 | relative viability (NCI-H2085; first compound 0.01 µM): 0.991 | relative viability (NCI-H2085; first compound 0.03162 µM): 1.05 | relative viability (NCI-H2085; first compound 0.1 µM): 1.05 | relative viability (NCI-H2085; first compound 0.3162 µM): 1.04 | relative viability (NCI-H2085; first compound 1 µM): 0.912
